From patent US20200190062A1, “HETEROCYCLIC COMPOUND AND PHARMACEUTICAL COMPOSITION COMPRISING SAME” (BEYONDBIO INC., priority 2015, published 2020)
Counter-ions that a name gives are not always drawn.

Experiments:
CDK1/cyclinB = target: T1, CDK1/cyclinB (Homo sapiens, UniProt P06493); test: Inhibition of CDK enzyme activity (ADP-Glo kinase assay); type: biochemical; details: 10 uM ATP, histone H1 substrate
T1 construct: purchased Merck Millipore
Protocol: (§1) Test compounds were prepared by dissolving the compounds obtained in the above Examples in dimethylsulfoxide (DMSO) at a concentration of 10 mM. The test compounds were diluted to 200 nM, 50 nM, […], 3.13 nM, 0.78 nM, and 0.2 nM and used in an enzyme reaction.
(§2) CDK enzyme reaction was conducted in a buffer containing 50 mM Tris-HCl (pH 7.5), 10 mM MgCl2, 1 mM EGTA, 1 mM EDTA, and 2 mM DTT. CDK1/cyclinB, CDK2/cylcinE, CDK5/p25, and CDK6/cyclinD3 enzymes commercially available from Merck Millipore were used for CDK1, CDK2, CDK5, and CDK6 enzymes, respectively, and CDK4/cyclinD1 enzyme commercially available from Signalchem (US) was used for CDK4. For CDK1, a reaction proceeded by adding 10 nM CDK1/cyclinB and 0.125 mg/ml histone H1 (Merck Millipore) substrate to the buffer and then adding 10 uM ATP thereto. For CDK2, a reaction was proceeded by adding 10 nM CDK2/cyclinE and 0.125 mg/ml histone H1 substrate to the buffer and then adding 10 uM ATP thereto. For CDK5, a reaction was proceeded by adding 10 nM CDK5/p25 and 0.125 mg/ml histone H1 substrate to the buffer and then adding 10 uM ATP thereto. For CDK4, a reaction was proceeded by adding 20 nM CDK4/cyclinD1 and 0.125 mg/ml Rb protein (Merck Millipore) to the buffer and then adding 10 uM ATP thereto. For CDK6, a reaction was proceeded by adding 50 nM CDK6/cyclinD3 and 0.125 mg/ml histone H1 substrate to the buffer and then adding 10 uM ATP thereto. Each enzyme reaction was incubated at 30° C. for 60 min. Then, the amount of ADP produced was measured using Victor X4 instrument (Perkin Elmer) after generating luminescence using ADP-Glo kinase assay kit (Promega, US). An inhibition effect on each enzyme was represented as a percentage of the luminescence value in the presence of the test compounds relative to the luminescence value without the test compounds. IC50 (nM) is the concentration of the compound to inhibit 50% of the enzyme activity.

CDK2/cyclinE = target: T2, CDK2/cyclinE (Homo sapiens, UniProt P24941); test: as above; type: biochemical; details: 10 uM ATP, histone H1 substrate
T2 construct: purchased Merck Millipore
Protocol: as §1, §2

HCT116 = test: Inhibition of cancer cell proliferation (MTT); type: cell-based, human
Tau protein = test: Inhibition of Tau phosphorylation (Western blot, pSer202) in SH-SY5Y cells; type: cell-based; details: 4 hrs
Protocol: SH-SY5Y cells expressing Tau protein were cultured in DMEM containing 10% FBS. 2.5×10^6 cells were placed in a 6-well plate and incubated at 5% CO2 and 37° C. for 16 hrs. The compounds obtained in the above Examples serially diluted ⅓ from 3 uM to 0.5 nM or the compounds in a concentration of 0.3, 0.1, 0.03, 0.01, 0.003 uM were treated for 4 hrs in DMEM containing 5% FBS. After 4 hrs, the culture solution was removed, washed with PBS, and cells were lysed by adding 100 ul of lysis buffer. The lysis buffer consisted of 50 mM Tris-HCl (pH 7.5), 150 mM NaCl, 5 mM EDT, 1 mM EGTA, 50 mM NaF, 1 mM PMSF, 1 mM Na3VO4, 2.5 mM DTT, 1% Triton X-100, and Protease inhibitor (Pierce). The lysed cells were centrifuged at 10,000 rpm and 4° C. for 10 min and the proteins in the supernatant were quantified. 25 ug of the proteins were electrophoresed on a SDS-PAGE gel and transferred to PVDF (Amersharm) membrane. The PVDF membrane was immersed in T-PBS containing 10% skim milk and shaken for 1 hr at room temperature. The primary antibody, Phosph-Tau[pSer202] (Abcam), diluted 1:1500 in T-PBS solution containing 5% skim milk was reacted with the membrane at room temperature for 2 hrs. The membrane was washed with T-PBS. The secondary antibody, Anti-rabbit IgG HRP, diluted 1:5000 was added to the membrane, reacted at room temperature for 1 hr, and washed.

CDK4/cyclinD1 = target: T3, CDK4/cyclinD1 (Homo sapiens, UniProt P11802); test: Inhibition of CDK enzyme activity (ADP-Glo kinase assay); type: biochemical; details: 10 uM ATP, Rb protein substrate; read-out: IC50 CDK4/cyclinD
T3 construct: purchased Signalchem (US)
T3 sequence (P11802 whole entry): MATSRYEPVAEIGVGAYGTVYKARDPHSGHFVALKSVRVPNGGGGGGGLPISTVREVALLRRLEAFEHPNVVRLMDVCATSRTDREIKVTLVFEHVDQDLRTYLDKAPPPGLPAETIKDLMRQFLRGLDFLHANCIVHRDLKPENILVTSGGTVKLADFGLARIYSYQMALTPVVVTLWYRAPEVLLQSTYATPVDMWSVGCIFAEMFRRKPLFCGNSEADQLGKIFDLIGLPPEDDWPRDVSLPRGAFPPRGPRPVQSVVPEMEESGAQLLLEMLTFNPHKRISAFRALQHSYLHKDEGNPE
T3 sequence (P24385 whole entry partner): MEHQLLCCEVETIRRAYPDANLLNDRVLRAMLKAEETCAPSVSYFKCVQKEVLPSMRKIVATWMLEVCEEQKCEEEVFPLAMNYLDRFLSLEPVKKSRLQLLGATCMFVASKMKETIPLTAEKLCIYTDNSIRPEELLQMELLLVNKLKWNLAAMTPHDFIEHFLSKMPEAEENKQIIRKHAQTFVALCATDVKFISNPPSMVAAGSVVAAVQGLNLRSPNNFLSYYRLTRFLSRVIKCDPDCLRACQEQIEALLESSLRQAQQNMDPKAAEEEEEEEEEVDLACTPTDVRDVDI
Protocol: as §1, §2

SH-SY5Y = test: Inhibition of cancer cell proliferation (MTT); type: cell-based, human
In short: (§3)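 Cells were seeded at 3000/well (A549, SK-N-SH and SH-SY5Y in DMEM, NCI-H23 in […], all with 10% FBS), allowed to attach for 16 h, then exposed to compounds at 0.004–10 uM for 72 h at 37 °C. MTT formazan was read at 535 nm, and GI50 was calculated relative to 0.08% DMSO controls.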

U-87MG = test: Inhibition of cancer cell proliferation (MTT); type: cell-based, human
In short: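 Plate 3000 cells/well and let them adhere for 16 h. Add compound (0.004, 0.013, 0.04, 0.12, 0.37, 1.1, 3.3, 10 uM; 0.08% DMSO) and culture for 72 h. Add MTT for 2 h, dissolve formazan in DMSO, read at 535 nm, and fit GI50.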

SK-N-SH = test: Inhibition of cancer cell proliferation (MTT); type: cell-based, human
In short: as §3

T1 sequence (P06493 whole entry): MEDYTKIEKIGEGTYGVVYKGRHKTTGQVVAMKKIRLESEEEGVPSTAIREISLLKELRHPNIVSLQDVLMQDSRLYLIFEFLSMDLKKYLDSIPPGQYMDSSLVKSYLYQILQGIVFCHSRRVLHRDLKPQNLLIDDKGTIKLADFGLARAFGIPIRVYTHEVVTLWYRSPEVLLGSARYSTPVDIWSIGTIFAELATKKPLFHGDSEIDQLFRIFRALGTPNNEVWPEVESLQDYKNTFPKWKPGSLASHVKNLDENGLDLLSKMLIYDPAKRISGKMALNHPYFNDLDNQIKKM
T1 sequence (P14635 whole entry partner): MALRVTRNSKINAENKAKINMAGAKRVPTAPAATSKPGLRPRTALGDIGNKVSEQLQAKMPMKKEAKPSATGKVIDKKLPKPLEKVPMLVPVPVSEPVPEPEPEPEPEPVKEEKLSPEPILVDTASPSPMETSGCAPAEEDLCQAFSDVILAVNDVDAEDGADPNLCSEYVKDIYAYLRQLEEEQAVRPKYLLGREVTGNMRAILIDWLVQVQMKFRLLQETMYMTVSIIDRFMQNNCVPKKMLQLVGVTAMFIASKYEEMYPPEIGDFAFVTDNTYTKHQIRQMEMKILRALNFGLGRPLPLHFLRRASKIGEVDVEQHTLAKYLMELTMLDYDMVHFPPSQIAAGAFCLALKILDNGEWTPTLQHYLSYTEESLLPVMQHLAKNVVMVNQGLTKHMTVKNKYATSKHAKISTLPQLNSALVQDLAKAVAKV

Row | IC50 (CDK1/cyclinB) | IC50 (CDK2/cyclinE) | GI50 (HCT116; 72 hrs) | IC50 (CDK4/cyclinD1) | GI50 (SH-SY5Y; Homo sapiens, SH-SY5Y, 72 h) | GI50 (U-87MG; Homo sapiens, U-87 MG, 72 h) | GI50 (SK-N-SH; Homo sapiens, SK-N-SH, 72 h) | Compound | Phosphorylation (%) of Tau (Tau protein; 0.012 uM) | Phosphorylation (%) of Tau (Tau protein; 0.037 uM) | Phosphorylation (%) of Tau (Tau protein; 0.11 uM) | Phosphorylation (%) of Tau (Tau protein; 0.33 uM) | Phosphorylation (%) of Tau (Tau protein; 1 uM) | Phosphorylation (%) of Tau (Tau protein; 3 uM) | other results
1 | 0.4 nM | 0.5 nM | 90 nM |  |  |  |  | Nc1nccc(-c2ccc(O)c(-c3ccnc(N)n3)n2)n1 [Example 61, 2,6-bis(2-aminopyrimidin-4-yl)pyridin-3-ol 3hydrochloride] |  |  |  |  |  |  | 
2 | 1.5 nM | 1.5 nM | 150 nM | 855 nM | 150 nM | 850 nM | 280 nM | Nc1nccc(-c2ccc(O)c(-c3ccnc(N)n3)n2)n1 [Example 1, 2,6-bis(2-aminopyrimidin-4-yl)pyridin-3-ol] | 88% | 92% | 51% | 28% | 30% | 25% | 
3 | 3.6 nM | 2.6 nM |  | 203 nM | 110 nM | 380 nM | 240 nM | Nc1cc(-c2ccc(O)c(-c3ccnc(N)n3)n2)ccn1 [Example 10, 2′-amino-6-(2-aminopyrimidin-4-yl)-[2,4′-bipyridin]-5-ol] | 101% | 84% | 60% | 39% | 11% | 13% | GI50 (HCT116; Homo sapiens, HCT-116, 72 h): 260 nM
4 | 0.2 nM | 0.3 nM | 10 nM | 125 nM |  | 10 nM |  | Cc1cc(-c2nc(-c3ccnc(N)c3F)ccc2O)nc(N)n1 [Example 71, 2′-amino-6-(2-amino-6-methylpyrimidin-4-yl)-3′-fluoro-[2,4′-bipyridin]-5-ol 3hydrochloride] |  |  |  |  |  |  | Phosphorylation (%) of Tau (Tau protein; 0.003 uM): 110%; Phosphorylation (%) of Tau (Tau protein; 0.01 uM): 101%; Phosphorylation (%) of Tau (Tau protein; 0.03 uM): 35%; Phosphorylation (%) of Tau (Tau protein; 0.1 uM): 26%
5 | 2.1 nM | 2.1 nM | 10 nM | 108 nM |  |  |  | Nc1nccc(-c2nc(-c3ccnc(N)c3F)ccc2O)n1 [Example 8] | 0% | 0% | 0% |  |  |  | Phosphorylation (%) of Tau (Tau protein; 0.0005 uM): 40%; Phosphorylation (%) of Tau (Tau protein; 0.0014 uM): 43%; Phosphorylation (%) of Tau (Tau protein; 0.0041 uM): 23%; GI50 (SH-SY5Y; 72 hrs): 10 nM; GI50 (U-87MG; 72 hrs): 60 nM; GI50 (SK-N-SH; 72 hrs): 10 nM
